Data: patent publication US12344610B2, “APOL1 inhibitors and methods of use” (Maze Therapeutics, Inc., priority 2022, dated 2025)
Read-outs that look alike come from different tables or passages of the source.

Experiments:
Type in all cases: cell-based
[1] = tested on: HEK293 cells overexpressing APOL1 G2; assay: APOL1 G2 HEK293 cell rescue assay (reversal of cell death caused by overexpression of APOL1); settings: geometric mean of at least 2 assay runs, † = single assay run
How it was run: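 EC50 is the half-maximal effective concentration for reversing cell death driven by APOL1 G2 overexpression in HEK293 cells. Reported as geometric mean of at least 2 runs on separate days, each run averaging duplicate wells per plate; some values from a single run.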

[2] = tested on: HEK293 clonal cell line overexpressing APOL1 G1; assay: APOL1 G1 HEK293 cell rescue assay (Example B3); settings: geometric mean of at least 2 runs, † = single run, ¥ = concentration at 50% rescue estimated (no sigmoidal curve)
How it was run: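 HEK293 clonal line overexpressing APOL1 G1; EC50 is half-maximal reversal of APOL1-induced cell death. Values are the geometric mean of ≥2 runs on separate days, each run the average of duplicate wells. Where no sigmoidal curve could be fitted, the concentration giving 50% rescue was estimated.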

[3] = tested on: Trypanosoma brucei Lister 427 VSG221 with APOL1 G0 recombinant protein; assay: APOL1 G0 trypanosome cell rescue assay (Example B5); settings: geometric mean of at least 2 assay runs, † = single assay run
Method: (§1) APOL1 G0/G1/G2 viability assay for measurement of cytotoxicity reversal by compound in trypanosomes (APOL1 G0/G1/G2 trypanosome cell rescue assay).
(§2) APOL1 protein expression and purification. The mature from of APOL1 proteins, residues 28-398, were expressed from a pET28a vector with an N-terminal His-tag and TEV cleavage site. Proteins were expressed in Escherichia coli BL21-CodonPlus (DE3)-RIPL cells. Liter cultures of terrific broth were grown at 37° C. until an OD600 of ˜0.8 was reached and then induced with isopropyl β-D-1-thiogalactopyranoside (IPTG; final concentration of 500 μM). Afterwards, cultures were grown for 3 hours at 37° C. For protein purification, cell pellets were resuspended in lysis buffer (50 mM Tris, pH 8.5, 5 mM EDTA, 0.5 mM DTT, 0.5 mM PMSF) supplemented with a cocktail of protease inhibitors. Cells were lysed by sonication, centrifuged, and the resulting pellet was collected. The homogenized pellet was resuspended in wash buffer (50 mM Tris, pH 8.5, 0.5 M NaCl, 5 mM EDTA, 0.5 mM DTT, 0.5 mM PMSF, protease inhibitor cocktail) and collected by centrifugation. Inclusion body dissolution was then conducted as previously reported (PNAS 112(9) (2015) 2894-2899; www.pnas.org/cgi/doi/10.1073/pnas.1421953112; herein incorporated by reference in its entirety). The solubilized APOL1 protein was applied to a nickel column (HisTrap, GE Life Sciences) preequilibrated in buffer A (50 mM Tris, pH 8.5, 0.15 M NaCl, 1% zwittergent 3-14, protease inhibitor cocktail). The resin was washed with buffer B (50 mM Tris, pH 8.5, 0.15 M NaCl, 0.1% DDM) and TEV cleavage was conducted on column overnight. Afterwards, the column was washed with buffer B, followed by His-washing buffer (50 mM Tris, pH 8.5, 0.15 M NaCl, 0.1% DDM, 10 mM imidazole). The protein was then removed from the resin using His-elution buffer (50 mM Tris, pH 8.5, 0.15 M NaCl, 0.1% DDM, 250 mM imidazole). The sample was further purified by size exclusion chromatography using a Superdex 200 Increase column (GE Life Sciences) in 50 mM Tris, pH 8.5, 0.15 M NaCl, and 0.1% DDM buffer. All APOL1 proteins (G0, G1, and G2) were generated at Viva Biotech (Shanghai) Ltd.
(§3) Modified HMI-9 media preparation (https://tryps.rockefeller.edu/trypsru2_culture_media_preparation.html; herein incorporated by reference in its entirety). Trypanosomes were cultured in modified HMI-9 media consisting of IMDM (ThermoFisher, 12440053), 10% heat-inactivated FBS (Gibco, 10082-147), 10% Serum Plus (Sigma-Aldrich, 14008C), 1×HMI-9 supplement stock, and 1% hypoxanthine stock. The 10×HMI-9 supplement stock was made by dissolving 280 mg bathocuproine disulfonic acid (Sigma-Aldrich, 146625), 1820 mg cysteine (add after bathocuproine) (Sigma-Aldrich, 30089), 1100 mg pyruvic acid (Sigma-Aldrich, 107360), 100 mg uracil (Sigma-Aldrich, U0750), 100 mg cytosine (Sigma-Aldrich, C3506) and 140 μL 2-mercaptoethanol (Sigma-Aldrich, M3148) in 1000 mL of water. The resulting solution was aliquoted and stored at −20° C. The hypoxanthine stock was made by dissolving 4 g of NaOH into 1000 mL of water. Afterwards, 13.6 g hypoxanthine (Sigma-Aldrich, H9377) was added to this mixture. The resulting solution was aliquoted and stored at −20° C.
(§4) Assay Setup. Trypanosoma brucei Lister 427 VSG221 (ATCC, PRA-382) cells were cultured in modified HMI-9 media. All experiments were performed in 384-well, white, solid bottom, tissue culture treated plates (Greiner, 781080). Assay ready plates were generated with duplicate 11-point compound dilution series that consisted of 2-fold stepwise dilutions (0.4% DMSO final). To each well, was added 20 μL of 2 μg/mL of APOL1 G0, G1, or G2 recombinant protein in modified HMI-9 media using a MultiDrop Combi (final APOL1 protein concentration=[…]). Trypanosomes were counted using a hemacytometer and diluted in modified HMI-9 media to a concentration of 1.25×10^4 cell/mL. […]

[4] = tested on: Trypanosoma brucei Lister 427 VSG221 with APOL1 G1 recombinant protein; assay: APOL1 G1 trypanosome cell rescue assay (Example B5); settings: geometric mean of at least 2 assay runs, † = single assay run
Method: as §1, §2, §3, §4

[5] = tested on: Trypanosoma brucei Lister 427 VSG221 with APOL1 G2 recombinant protein; assay: APOL1 G2 trypanosome cell rescue assay (Example B5); settings: geometric mean of at least 2 assay runs, † = single assay run
Method: as §1, §2, §3, §4

[6] = HEK293 clonal line overexpressing APOL1 G1
[7] = read-out: APOL1 G0 Trypanosome Rescue EC50, Trypanosoma brucei Lister 427 VSG221 with APOL1 G0 recombinant protein, 20 hours, CellTiter-Glo
[8] = read-out: APOL1 G1 Trypanosome Rescue EC50, Trypanosoma brucei Lister 427 VSG221 with APOL1 G1 recombinant protein, 20 hours, CellTiter-Glo
[9] = read-out: APOL1 G2 Trypanosome Rescue EC50, Trypanosoma brucei Lister 427 VSG221 with APOL1 G2 recombinant protein, 20 hours, CellTiter-Glo
[10] = Homo sapiens, HEK293, HEK293 overexpressing APOL1 G2
[11] = Homo sapiens, HEK293, HEK293 clonal line overexpressing APOL1 G1
[12] = Trypanosoma brucei, 20 h, read-out: APOL1 G0 Trypanosome Rescue EC50, Trypanosoma brucei Lister 427 VSG221 with APOL1 G0 recombinant protein, 20 hours, CellTiter-Glo
[13] = Trypanosoma brucei, 20 h, read-out: APOL1 G1 Trypanosome Rescue EC50, Trypanosoma brucei Lister 427 VSG221 with APOL1 G1 recombinant protein, 20 hours, CellTiter-Glo
[14] = Trypanosoma brucei, 20 h, read-out: APOL1 G2 Trypanosome Rescue EC50, Trypanosoma brucei Lister 427 VSG221 with APOL1 G2 recombinant protein, 20 hours, CellTiter-Glo

CN1C(=O)C2(CCN(CCOc3ccc(C4(S(C)(=O)=O)CC(O)C4)cc3)CC2)c2cc(C(F)F)ccc21 (single isomer, unassigned) [Compound 279, 5-(difluoromethyl)-1-methyl-1′-(2-{4-[(trans) or (cis)-3-hydroxy-1-methanesulfonylcyclobutyl]phenoxy}ethyl)-1,2-dihydrospiro[indole-3,4′-piperidin]-2-one]
EC50 ([1]; HEK293 overexpressing APOL1 G2): 60 nM | EC50 [2, 6]: 234 nM | EC50 [3, 7]: 213 nM | EC50 [4, 8]: 283 nM | EC50 [5, 9]: 83.1 nM

CS(=O)(=O)C1(c2ccc(OCCN3CCC4(CC3)C(=O)Nc3ccc(C(F)F)cc34)cc2)CC(O)C1 (single isomer, unassigned) [Compound 282, 5-(difluoromethyl)-1′-(2-{4-[(trans) or (cis)-3-hydroxy-1-methanesulfonylcyclobutyl]phenoxy}ethyl)-1,2-dihydrospiro[indole-3,4′-piperidin]-2-one]
EC50 ([1]; HEK293 overexpressing APOL1 G2): 130 nM | EC50 [2, 6]: 383 nM | EC50 [3, 7]: 181 nM | EC50 [4, 8]: 230 nM | EC50 [5, 9]: 59.8 nM

O=C1CCc2cc(OCCN3CCC4(CC3)C(=O)Nc3ccc(C(F)F)cc34)cnc2N1C1CC(CO)C1 (single isomer, unassigned) [Compound 309, 5-(difluoromethyl)-1′-[2-({7-oxo-8-[(cis) or (trans)-3-(hydroxymethyl)cyclobutyl]-5,6,7,8-tetrahydro-1,8-naphthyridin-3-yl}oxy)ethyl]-1,2-dihydrospiro[indole-3,4′-piperidin]-2-one]
EC50 [1, 10]: 55.9 nM | EC50 [2, 11]: 134 nM | EC50 [3, 12]: 58.2 nM | EC50 [4, 13]: 70.6 nM | EC50 [5, 14]: 23.4 nM

CC1(O)CC(CN2C(=O)CCc3cc(OCCN4CCC5(CC4)C(=O)Nc4ccc(C(F)F)cc45)cnc32)C1 (single isomer, unassigned) [Compound 311, 5-(difluoromethyl)-1′-{2-[(7-oxo-8-{[(cis) or (trans)-3-hydroxy-3-methylcyclobutyl]methyl}-5,6,7,8-tetrahydro-1,8-naphthyridin-3-yl)oxy]ethyl}-1,2-dihydrospiro[indole-3,4′-piperidin]-2-one]
EC50 [1, 10]: 38.3 nM | EC50 [2, 11]: 100 nM | EC50 [3, 12]: 37.4 nM | EC50 [4, 13]: 50.3 nM | EC50 [5, 14]: 13.8 nM

CC1(O)CC(CN2C(=O)CCc3cc(OCCN4CCC5(CC4)C(=O)Nc4ccc(C(F)F)cc45)cnc32)C1 (single isomer, unassigned) [Compound 312, 5-(difluoromethyl)-1′-{2-[(7-oxo-8-{[(trans) or (cis)-3-hydroxy-3-methylcyclobutyl]methyl}-5,6,7,8-tetrahydro-1,8-naphthyridin-3-yl)oxy]ethyl}-1,2-dihydrospiro[indole-3,4′-piperidin]-2-one]
EC50 ([1]; HEK293 overexpressing APOL1 G2): 24.3 nM | EC50 [2, 6]: 66.5 nM | EC50 [3, 7]: 28.2 nM | EC50 [4, 8]: 34.4 nM | EC50 [5, 9]: 10.1 nM

CC1(O)CC(CN2C(=O)CCc3cc(OCCN4CCC5(CC4)C(=O)Nc4ccc(Cl)cc45)cnc32)C1 (single isomer, unassigned) [Compound 313, 5-chloro-1′-{2-[(7-oxo-8-{[(cis) or (trans)-3-hydroxy-3-methylcyclobutyl]methyl}-5,6,7,8-tetrahydro-1,8-naphthyridin-3-yl)oxy]ethyl}-1,2-dihydrospiro[indole-3,4′-piperidin]-2-one]
EC50 ([1]; HEK293 overexpressing APOL1 G2): 63.3 nM | EC50 [2, 6]: 135 nM | EC50 [3, 12]: 54.5 nM | EC50 [4, 8]: 71.8 nM | EC50 [5, 14]: 20.2 nM

CC1(O)CC(c2ncc(OCCN3CCC4(CC3)C(=O)Nc3ccc(Cl)cc34)cn2)C1 (single isomer, unassigned) [Compound 392, 5-chloro-1′-[2-({2-[(trans) or (cis)-3-hydroxy-3-methylcyclobutyl)pyrimidin-5-yl}oxy)ethyl]-1,2-dihydrospiro[indole-3,4′-piperidin]-2-one]
EC50 ([1]; HEK293 overexpressing APOL1 G2): 27.1 nM | EC50 [2, 11]: 89.9 nM | EC50 [3, 7]: 70 nM | EC50 [4, 8]: 79.4 nM | EC50 [5, 9]: 28.5 nM

O=C1CCc2cc(OCCN3CCC4(CC3)C(=O)Nc3ccc(Cl)cc34)cnc2N1[C@H]1C[C@](O)(C2CC2)C1 (single isomer, unassigned) [Compound 398, 5-chloro-1′-[2-({7-oxo-8-[(cis)-3-cyclopropyl-3-hydroxycyclobutyl]-5,6,7,8-tetrahydro-1,8-naphthyridin-3-yl}oxy)ethyl]-1,2-dihydrospiro[indole-3,4′-piperidin]-2-one]
EC50 [1, 10]: 20.1 nM | EC50 [2, 11]: 374 nM | EC50 [3, 12]: 53.6 nM | EC50 [4, 13]: 52.2 nM | EC50 [5, 14]: 18 nM

CC(CO)(c1ncc(OCCN2CCC3(CC2)C(=O)Nc2ccc(Cl)cc23)cc1C(F)(F)F)S(C)(=O)=O (single isomer, unassigned) [Compound 402, 5-chloro-1′-[2-({6-[(2S or 2R)-1-hydroxy-2-methanesulfonylpropan-2-yl]-5-(trifluoromethyl)pyridin-3-yl}oxy)ethyl]-1,2-dihydrospiro[indole-3,4′-piperidin]-2-one]
EC50 ([1]; HEK293 overexpressing APOL1 G2): 23.8 nM | EC50 [2, 6]: 35.7 nM | EC50 [3, 12]: 33.6 nM | EC50 [4, 13]: 42.7 nM | EC50 [5, 14]: 16.5 nM
